1 substance from US20200247855A1, “THERAPY AND DIAGNOSTICS” (OXFORD UNIVERSITY INNOVATION LIMITED, priority 2017, published 2020) can be followed below.

No end group written: not given here.

Format in all cases: binding
The target in test [1] is T1, His-tagged P672-biotinylated CCL2 interaction (Homo sapiens, UniProt P13500).
T1 construct: host or cells: P672: HEK293F (in-house); biotinylated CCL2: not described
Briefly: AlphaScreen disruption of P672:chemokine interaction. On the procedure:
(§1) B-D. Effect of indicated peptides at a concentration of 100 μM on a His-tagged P672-biotinylated CCL8, CCL2 or CCL3 interaction respectively using an AlphaScreen assay. In each panel. […] Data are presented as mean±s.e.m. of three independent experiments, shown as individual data points.
(§2) Data are shown as mean of two technical replicates. Curves were fitted with 4 parameters to estimate IC50.
(§3) The binding of these peptides to CCL8 was assayed by examining their ability to disrupt the P672:CCL8 interaction using an AlphaScreen assay (FIG. 20E, H). […] BK1 derivatives were tested for their ability to inhibit P672 interactions with CCL2 and CCL3 using AlphaScreen (FIG. 20 F, G, I, J).
(§4) AlphaScreen® Histidine detection kit was purchased from PerkinElmer (6760619M lot: 2457886) and the assay was set up in white bottom Proxiplate™ 384 Plus microplates (PerkinElmer) following the manufacturer's instructions. The assay buffer used was 50 mM HEPES, 150 mM NaCl, 0.1% BSA, 0.01% Tween20, 1% DMSO, pH 7.5 and the final volume in each well was 20 μL. Briefly, biotinylated chemokine (recombinant, final concentration 1.25 nM (CCL8), 5 nM (CCL2) and 2.5 nM (CCL3)) was pre-incubated at room temperature for 15 min with different concentrations of each peptide. His-tagged P672 (final concentration 2.5 nM (CCL8), 5 nM (CCL2) and 1.25 nM (CCL3)) was then added to each well and the plate was incubated at room temperature for 30 min. Finally, acceptor and donor beads were added as a 1:1 suspension in buffer to each well and the plate was further incubated at RT for 1 h. Data was obtained by reading the plate using a Pherastar FSX plate reader (excitation 680 nm, emission 570 nm) and was analysed using GraphPad Prism.
In general terms: In Alpha technology, singlet oxygen from a donor bead excites a nearby acceptor bead.

Test [2] deals with T2, His-tagged P672-biotinylated CCL3 interaction (Homo sapiens, UniProt P10147).
T2 construct: host or cells: P672: HEK293F (in-house); biotinylated CCL3: not described
T2 sequence (P10147 24-92): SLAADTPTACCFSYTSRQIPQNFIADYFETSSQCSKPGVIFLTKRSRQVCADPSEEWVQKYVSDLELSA
Described as above. The settings on record: AlphaScreen dose-response. As to the method:
as §1, §2, §3, §4

Test [3] addresses T3, CCL8 (Homo sapiens, UniProt P80075).
T3 construct: SUMO (in-house protein only) (cleaved yes); made in house; host or cells: Escherichia coli RosettaGami 2 (DE3)
T3 sequence (P80075 24-99): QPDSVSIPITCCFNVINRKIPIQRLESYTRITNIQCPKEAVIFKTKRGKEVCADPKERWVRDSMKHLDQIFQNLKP
Put plainly: Fluorescence polarisation (anisotropy) assay. To be noted: fluorescence polarisation displacement assay. (Fluorescence polarisation rises when a labelled molecule tumbles more slowly, as on binding a larger partner.)

T1 sequence (P13500 24-99): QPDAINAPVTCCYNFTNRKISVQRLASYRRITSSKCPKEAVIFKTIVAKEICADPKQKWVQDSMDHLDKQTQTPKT

As for EDEDYEDFFKPVTAYF-NH2 [BK1.1], the “Inhibition of P672 interaction with CCL2 (BK1 derivatives)” value in test [1] (AlphaScreen dose-response) is “did not inhibit”. For the same substance, the “Disruption of the P672-CCL2 interaction” value in test [1] (AlphaScreen, peptide 100 μM) is reported as “disrupted”. The “Inhibition of P672 interaction with CCL3 (BK1 derivatives)” value in test [2] was “did not inhibit”. Further, the figures for the “Displacement of FITC-labelled peptide from CCL8 by unlabelled peptide” value in test [3] and in test [3] (listed as P672_PEP) were “indicate its binding” and “able to displace labelled peptide bound to chemokine”, respectively.
